# In US20060110401A1, “Mixture of peptides from c and ns3 proteins of the hepatitis c virus and applications thereof” (priority 2002, published 2006):
# Where two headings read alike, the source gives them in different places. Marks after values point to notes of the source that are not given here. Residues, ends and D or L forms follow the SMILES beside them.
# How the values were obtained:
# DR1 = test: DR1
# HLA-DR15 (DRB1*1501) = target: T1, HLA-DR15 (DRB1*1501) (Homo sapiens, UniProt P01903+P01911); test: biochemical; assay type: binding; conditions: DRB1*1501; read-out: binds with good affinity to DR15
# T1 construct: endogenous in cells; host or cells: homozygous EBV-transformed human B lymphocyte lines; immunopurified with antibody L243
# HLA-DR7 (DRB1*0701) = HLA-DR7 (DRB1*0701) (Homo sapiens, UniProt P01903+P01911, A100R/A102G/A103Q/D57E/D86V/E43K/F76Y/K127E/L162R/M171V/P40G/Q125H/Q99D/R33Q/R42Y/R54Q/S133A/S66F/T210M/V115G/Y107V/Y59L/Y89S); test: biochemical; assay type: binding; conditions: read-out: binds with good affinity to DR7
# DRB5 = test: DRB5
# HLA-DR11 (DRB1*1101) = HLA-DR11 (DRB1*1101) (Homo sapiens, UniProt P01903+P01911, A100R/A169T/A87E/I96F/K41T/L162R/M171V/P40S/Q125H/Q178H/Q39Y/Q99D/R42S/S66Y/T262R/V115G/W38E); test: biochemical; assay type: binding; conditions: read-out: binds with good affinity to DR11
# HLA-DR11 (DRB1*1101), sequence (P01903 26-254 limits assumed, other chains not shown): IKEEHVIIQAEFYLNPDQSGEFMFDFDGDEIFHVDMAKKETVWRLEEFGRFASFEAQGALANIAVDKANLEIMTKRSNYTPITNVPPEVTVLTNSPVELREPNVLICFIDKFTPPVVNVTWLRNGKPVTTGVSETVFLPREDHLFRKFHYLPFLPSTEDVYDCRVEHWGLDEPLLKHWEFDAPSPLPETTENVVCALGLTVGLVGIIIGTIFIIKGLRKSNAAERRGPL
# HLA-DR1 (DRB1*0101) = target: T2, HLA-DR1 (DRB1*0101) (Homo sapiens, UniProt P01903+P01911, A100R/D57E/F55L/F60I/F76Y/I96L/L162R/M171V/P40L/Q125E/R42F/V115G/Y59C); test: biochemical; assay type: binding; conditions: DRB1*0101
# T2 construct: endogenous in cells; host or cells: homozygous EBV-transformed human B lymphocyte lines; immunopurified with antibody L243
# DRB3 = test: DRB3
# HLA-DRB5 (DRB5*0101) = target: T3, HLA-DRB5 (DRB5*0101) (Homo sapiens, UniProt P01903+Q30154); test: biochemical; assay type: binding; conditions: read-out: binds with good affinity to DRB5
# T3 construct: endogenous in cells; host or cells: homozygous EBV-transformed human B lymphocyte lines; immunopurified with antibody L243
# DRB4 = test: DRB4
# From the text: Table printed on a drawing sheet, Figure 2
# Where the first naming reader finds the target: head: DRB4
# HLA-DRB4 (DRB4*0101) = target: T4, HLA-DRB4 (DRB4*0101) (Homo sapiens, UniProt P01903+P13762, G164S); test: biochemical; assay type: binding; conditions: tracer E2/E168, read-out: IC50, binding to HLA-DRB4
# T4 construct: endogenous in cells; host or cells: homozygous EBV-transformed human B lymphocyte lines; immunopurified with antibody L243
# [1] = tested on: T lymphocytes derived from PBMCs from patients chronically infected with HCV; assay type: cell-based, human
# [2] = read-out: binds with good affinity to DR1
# [3] = patient 067, supernatant 48 h, —: not detected
# [4] = patient 078, supernatant 48 h, —: not detected
# [5] = patient 093, supernatant 48 h, —: not detected
# [6] = patient 630, supernatant 48 h, —: not detected
# [7] = patient 659, supernatant 48 h, —: not detected
# [8] = patient 815, supernatant 48 h, —: not detected
# [9] = patient 862, supernatant 48 h, —: not detected
compound,measurement,setting,value
CC[C@H](C)[C@H](NC(=O)[C@H](Cc1ccc(O)cc1)NC(=O)CNC(=O)[C@H](CCSC)NC(=O)[C@H](CC(C)C)NC(=O)[C@H](CC(=O)O)NC(=O)[C@H](C)NC(=O)[C@H](Cc1ccccc1)NC(=O)CNC(=O)[C@H](C)NC(=O)[C@@H](N)[C@@H](C)O)C(=O)N1CCC[C@H]1C(=O)N[C@@H](CC(C)C)C(=O)N[C@H](C(=O)NCC(=O)N[C@@H](C)C(=O)N1CCC[C@H]1C(=O)N[C@@H](CC(C)C)C(=O)NCC(=O)NCC(=O)N[C@@H](C)C(=O)N[C@@H](C)C(=O)N[C@@H](CCCNC(=N)N)C(=O)O)C(C)C [5C 127-149] (H-TAGFADLMGYIPLVGAPLGGAAR-OH; N-terminus and C-terminus assumed),IC50,DR1,2 nM
same,IC50,HLA-DR15 (DRB1*1501),< 1000 nM
same,IC50,HLA-DR7 (DRB1*0701),< 1000 nM
same,IC50,DRB5,3 nM
same,IC50,HLA-DR11 (DRB1*1101),< 1000 nM
same,IC50,HLA-DR1 (DRB1*0101); [2],< 1000 nM
same,IC50,DRB3,> 100000 nM
same,IC50,HLA-DRB5 (DRB5*0101),< 1000 nM
CC[C@H](C)[C@H](NC(=O)[C@@H](NC(=O)[C@H](CCCNC(=N)N)NC(=O)[C@@H](NC(=O)CNC(=O)[C@H](C)NC(=O)CNC(=O)[C@H](Cc1c[nH]cn1)NC(=O)[C@H](Cc1ccc(O)cc1)NC(=O)[C@@H](NC(=O)[C@@H](NC(=O)[C@H](Cc1c[nH]c2ccccc12)NC(=O)[C@H](C)NC(=O)[C@@H](NC(=O)CN)C(C)C)[C@@H](C)O)C(C)C)[C@@H](C)O)[C@@H](C)O)C(=O)N[C@@H](C)C(=O)N[C@@H](CO)C(=O)N1CCC[C@H]1C(=O)O [11N 1076-1093] (H-GVAWTVYHGAGTRTIASP-OH; N-terminus and C-terminus assumed),IC50,HLA-DR15 (DRB1*1501),< 1000 nM
same,IC50,HLA-DR7 (DRB1*0701),< 1000 nM
same,IC50,DRB5,100 nM
same,IC50,HLA-DR11 (DRB1*1101),< 1000 nM
same,IC50,HLA-DR1 (DRB1*0101); [2],< 1000 nM
same,IC50,DRB4,60000 nM
same,IC50,DRB3,6000 nM
same,IC50,HLA-DRB5 (DRB5*0101),< 1000 nM
CC[C@H](C)[C@H](NC(=O)[C@H](Cc1c[nH]cn1)NC(=O)[C@@H](NC(=O)[C@H](CC(C)C)NC(=O)CNC(=O)[C@@H](N)[C@@H](C)O)[C@@H](C)O)C(=O)N[C@@H](CC(=O)O)C(=O)N[C@@H](C)C(=O)N[C@@H](Cc1c[nH]cn1)C(=O)N[C@@H](Cc1ccccc1)C(=O)N[C@@H](CC(C)C)C(=O)N[C@@H](CO)C(=O)N[C@@H](CCC(N)=O)C(=O)N[C@H](C(=O)N[C@@H](CCCCN)C(=O)O)[C@@H](C)O [29N 1563-1577],IC50,HLA-DRB4 (DRB4*0101),40000 nM
same,IC50,"HLA-DR1 (DRB1*0101); competition with biotinylated tracer HA 306-318, read-out: IC50, binding to HLA-DR1",8 nM
phytohemagglutinin [PHA],IFNγ,[1]; [3],2447 pg/mL
same,IL2,[1]; [3],1337 pg/mL
same,IL4,[1]; [3],632 pg/mL
same,IL10,[1]; [3],665 pg/mL
same,IFNγ,[1]; [4],2249 pg/mL
same,IL2,[1]; [4],207 pg/mL
same,IL4,[1]; [4],55 pg/mL
same,IL10,[1]; [4],207 pg/mL
same,IL2,"[1]; patient 093, assay at 24 h instead of 48 h",1402* pg/ml
same,IFNγ,[1]; [5],8542 pg/mL
same,IL4,[1]; [5],127 pg/mL
same,IL10,[1]; [5],8551 pg/mL
same,IL2,"[1]; patient 342, supernatant 48 h, —: not detected",125 pg/mL
same,IFNγ,[1]; [6],474 pg/mL
same,IL2,[1]; [6],18874 pg/mL
same,IL4,[1]; [6],251 pg/mL
same,IL10,[1]; [6],242 pg/mL
same,IFNγ,[1]; [7],— 187 pg/ml
same,IL2,[1]; [7],153 — pg/ml
same,IL4,[1]; [7],453 pg/mL
same,IL10,[1]; [7],182 pg/mL
same,IFNγ,[1]; [8],1979 pg/mL
same,IL2,[1]; [8],1002 pg/mL
same,IL4,[1]; [8],5638 pg/mL
same,IL10,[1]; [8],497 pg/mL
same,IFNγ,[1]; [9],9902 pg/mL
same,IL2,[1]; [9],60 pg/mL
same,IL4,[1]; [9],9 pg/mL
tetanus toxin [TT],IL4,[1],24 pg/mL
